Assay results published in patent publication US10100050B2 (CHIESI FARMACEUTICI S.P.A., priority 2015, dated 2018).
“And” between values parts separate entries of the source, which are not always exact repeats. Equal values may be shown once. Where a name gives a salt, the structure may show the parent alone.

Columns and labels:
p38alpha = target: T1, p38alpha (Homo sapiens, UniProt Q16539); test: P38alpha enzyme inhibition assay (Alphascreen kinase activity assay); type: biochemical; conditions: IC50 classes; 2 hours preincubation at 25° C., 250 μM ATP; read-out: p38α inhibition
T1 construct: purchased Invitrogen PV3304
T1 sequence (Q16539 whole entry): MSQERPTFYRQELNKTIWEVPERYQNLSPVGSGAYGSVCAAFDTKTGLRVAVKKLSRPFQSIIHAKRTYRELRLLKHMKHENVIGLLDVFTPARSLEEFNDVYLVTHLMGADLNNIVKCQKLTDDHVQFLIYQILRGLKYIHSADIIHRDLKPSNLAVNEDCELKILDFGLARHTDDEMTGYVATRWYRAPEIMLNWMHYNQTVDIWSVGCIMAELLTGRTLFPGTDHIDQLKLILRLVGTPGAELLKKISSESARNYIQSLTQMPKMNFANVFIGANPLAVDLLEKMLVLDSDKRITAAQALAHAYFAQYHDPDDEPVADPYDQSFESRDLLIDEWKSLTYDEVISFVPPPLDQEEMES
Experimental: P38alpha Enzyme Inhibition Assay
The inhibitory activity of compounds was determined using an Alphascreen® (Perkin Elmer) based kinase activity assay. Kinase reactions consisted of 25 mM HEPES pH 7.5, 10 mM MgCl2, 100 μM Na3VO4, 2 mM DTT, 0.05 mg/ml Tween […] (Invitrogen, PV3304), 1% DMSO and 0.3 μg/ml ATF-2 fusion protein (New England Biolabs, 9224). Compounds were incubated under these conditions for 2 hours, at 25° C., prior to the initiation of the kinase activity by the addition of the 250 μM ATP. Reaction volumes were 20 uL. After 1 hr at 25° C. reactions were stopped by the adding 10 uL of 25 mM HEPES pH 7.5 containing 62.5 mM EDTA, 0.05% Triton X-100, 10% BSA and 0.83 ng/uL anti-phospho-ATF2 antibody (Abcam, ab28812). Detection was performed by measuring luminescence following the addition of Alphascreen Donor beads (Perkin Elmer 6765300) and Protein A Alphascreen Acceptor beads (Perkin Elmer 6760137), both at a final concentration of 20 ug/ml. IC50 values were determined from concentration-response curves.

BEAS-2B cells = test: TNFα-stimulated BEAS-2B IL-8 release assay; type: cell-based; conditions: Homo sapiens, IC50 classes, TNF-α 10 ng/ml, 18 h, read-out: TNFα-stimulated BEAS-2B IL-8 release inhibition
Experimental: TNFα-Stimulated BEAS-2B IL-8 Release Assay
Human bronchial epithelial cell line BEAS-2B was purchased from Sigma (St. Louis, Mo.). BEAS-2B cells were cultured in Bronchial Epithelial cell Growth Medium (BEGM), prepared by supplementing Bronchial Epithelial Basal Medium with SingleQuotes™ (Lonza, Switzerland), which contains retinoic acid, epidermal growth factor, epinephrine, transferrin, triiodothyronin, insulin, hydrocortisone, antimicrobial agents, and bovine pituitary extract. In addition, BEGM medium was supplemented with 2 mM glutamine, 100 U penicillin and 100 μg/ml streptomycin (Life Technologies), in an atmosphere of 95% air and 5% CO2 at 37° C.
BEAS-2B were seeded in 48-well plates at the density of 3×10^4 cells per well, grown to approximately 80-90% confluence. Cells were pre-incubated with p38 inhibitors for 1 hour and then stimulated with TNF-α (10 ng/ml) for 18 h at 37° C. with 5% CO2. Subsequently, supernatants were collected and used for measuring IL-8 levels using a paired antibody quantitative ELISA kit purchased from Life Technologies (detection limit: […]). All the treatments were performed at least in quadruplicate.
A concentration-response curve to each test compound was performed and the effect of compound in each experiment was expressed as a percentage inhibition of the control IL-8 release. Compound potency (IC50) was calculated by the analysis of the sigmoidal dose-response curve (variable slope) elaborated by Graph Pad PRISM4 program.

[1] = system: Peripheral Blood Mononuclear Cells (PBMCs); test: LPS-stimulated PBMC TNFα release assay; type: cell-based; conditions: IC50 classes; human PBMC, LPS 10 ng/ml, 18 h; read-out: LPS-stimulated PBMC TNFα release inhibition
Experimental: 1-10 nM ‘+’; • <1 nM ‘++’ LPS-Stimulated PBMC TNFα Release Assay
Peripheral Blood Mononuclear Cells (PBMCs) were isolated from healthy human volunteer blood using a standard density gradient centrifugation technique. Citrated blood was placed onto Histopaque™ and centrifuged. The PBMCs were removed from the density gradient interface and washed in phosphate buffered saline (PBS). The PBMCs were suspended in RPMI 1640 medium (without serum), dispensed into a 96-well plate and incubated at 37° C. for 3 h in a humidified incubator. After incubation, the medium was replaced (with medium containing 1% foetal bovine serum) and the plate incubated at 37° C., for 1 h, in the presence of test compound or the appropriate vehicle. LPS (10 ng/ml), or an appropriate vehicle control, was then added to the cells and the plate returned to the incubator for 18 h. Cell-free supernatants were removed and assayed for TNFα levels using MSD plates on the Sector Imager 6000 (MesoScale).
A dose response curve to each test compound was performed and the effect of compound in each experiment was expressed as a percentage inhibition of the control TNFα release. Dose response curves were plotted and compound potency (IC50) was determined. Compounds were tested in at least three separate experiments.

SMILES | IC50 (p38alpha) | IC50 (BEAS-2B cells) | IC50 [1]
COc1c(NC(C)=O)cc(C(C)(C)C)cc1NC(=O)N[C@H]1CC[C@@H](Oc2ccc3nnc([C@@H]4CCCN4C)n3c2)c2ccccc21 [Example 11, N-[5-tert-Butyl-2-methoxy-3-(3-{(1S,4R)-4-[3-((S)-1-methyl-pyrrolidin-2-yl)-[1,2,4]triazolo[4,3-a]pyridin-6-yloxy]-1,2,3,4-tetrahydro-naphthalen-1-yl}-ureido)-phenyl]-acetamide] | < 1 nM | > 1 nM | < 1 nM
COc1c(NC(C)=O)cc(C(C)(C)C)cc1NC(=O)N[C@H]1CC[C@@H](Oc2ccc3nnc([C@@H]4CCCCN4C)n3c2)c2ccccc21 [Example 12, N-[5-tert-Butyl-2-methoxy-3-(3-{(1S,4R)-4-[3-((S)-1-methyl-piperidin-2-yl)-[1,2,4]triazolo[4,3-a]pyridin-6-yloxy]-1,2,3,4-tetrahydro-naphthalen-1-yl}-ureido)-phenyl]-acetamide] | < 1 nM | 0.3 to 1 nM | 1 to 5 nM
CCS(=O)(=O)Nc1cc(C(C)(C)C)cc(NC(=O)N[C@H]2CC[C@@H](Oc3ccc4nnc(C(C)(C)N(C)C)n4c3)c3ccccc32)c1OC [Example 13, Ethanesulfonic acid [5-tert-butyl-3-(3-{(1S,4R)-4-[3(1-dimethylamino-1-methyl-ethyl)-[1,2,4]triazolo[4,3-a]pyridin-6-yloxy]-1,2,3,4-tetrahydro-naphthalen-1-yl}-ureido)-2-methoxy-phenyl]-amide hydrochloride salt] | 1 to 10 nM | < 0.3 nM | < 1 nM
COc1c(NC(=O)N[C@H]2CC[C@@H](Oc3ccc4nnc(C(C)(C)N(C)C)n4c3)c3ccccc32)cc(C(C)(C)C)cc1NS(=O)(=O)C1CC1 [Example 14, Cyclopropanesulfonic acid [5-tert-butyl-3-(3-{(1S,4R)-4-[3(1-dimethylamino-1-methyl-ethyl)-[1,2,4]triazolo[4,3-a]pyridin-6-yloxy]-1,2,3,4-tetrahydro-naphthalen-1-yl}-ureido)-2-methoxy-phenyl]-amide partial formate salt] | 1 to 10 nM | < 0.3 nM | < 1 nM
COCCS(=O)(=O)Nc1cc(C(C)(C)C)cc(NC(=O)N[C@H]2CC[C@@H](Oc3ccc4nnc(C(C)(C)N(C)C)n4c3)c3ccccc32)c1OC [Example 15, 2-Methoxy-ethanesulfonic acid [5-tert-butyl-3-(3-{(1S,4R)-4-[3(1-dimethylamino-1-methyl-ethyl)-[1,2,4]triazolo[4,3-a]pyridin-6-yloxy]-1,2,3,4-tetrahydro-naphthalen-1-yl}-ureido)-2-methoxy-phenyl]-amide hydrochloride salt] | 1 to 10 nM | < 0.3 nM | < 1 nM
COc1c(NC(=O)N[C@H]2CC[C@@H](Oc3ccc4nnc(C(C)(C)N(C)C)n4c3)c3ccccc32)cc(C(C)(C)C)cc1NS(=O)(=O)CC(C)C [Example 16, 2-Methyl-propane-1-sulfonic acid [5-tert-butyl-3-(3-{(1S,4R)-4-[3-(1-dimethylamino-1-methyl-ethyl)-[1,2,4]triazolo[4,3-a]pyridin-6-yloxy]-1,2,3,4-tetrahydro-naphthalen-1-yl}-ureido)-2-methoxy-phenyl]-amide hydrochloride salt] | 1 to 10 nM and < 1 nM | 0.3 to 1 nM | 1 to 5 nM
CN(C)C(C)(C)c1nnc2ccc(O[C@@H]3CC[C@H](NC(=O)Nc4cc(NS(C)(=O)=O)cc(C(C)(C)C)c4)c4ccccc43)cn12 [Example 19, N-[3-tert-Butyl-5-(3-{(1S,4R)-4-[3-(1-dimethylamino-1-methyl-ethyl)-[1,2,4]triazolo[4,3-a]pyridin-6-yloxy]-1,2,3,4-tetrahydro-naphthalen-1-yl}-ureido)-phenyl]-methanesulfonamide] | < 1 nM | < 0.3 nM | < 1 nM
CN1CCC[C@]1(C)c1nnc2ccc(O[C@@H]3CC[C@H](NC(=O)Nc4cc(NS(C)(=O)=O)cc(C(C)(C)C)c4)c4ccccc43)cn12 [Example 20, N-[3-tert-Butyl-5-(3-{(1S,4R)-4-[3((R)-1,2-dimethyl-pyrrolidin-2-yl)-[1,2,4]triazolo[4,3-a]pyridin-6-yloxy]-1,2,3,4-tetrahydro-naphthalen-1-yl}-ureido)-phenyl]-methanesulfonamide] | < 1 nM | < 0.3 nM | < 1 nM
CN1CCC[C@H]1c1nnc2ccc(O[C@@H]3CC[C@H](NC(=O)Nc4cc(NS(C)(=O)=O)cc(C(C)(C)C)c4)c4ccccc43)cn12 [Example 21] | < 1 nM | 0.3 to 1 nM | 1 to 5 nM
CN1CCC[C@@]1(C)c1nnc2ccc(O[C@@H]3CC[C@H](NC(=O)Nc4cc(NS(C)(=O)=O)cc(C(C)(C)C)c4)c4ccccc43)cn12 [Example 24, N-[3-tert-Butyl-5-(3-{(1S,4R)-4-[3-((S)-1,2-dimethyl-pyrrolidin-2-yl)-[1,2,4]triazolo[4,3-a]pyridin-6-yloxy]-1,2,3,4-tetrahydro-naphthalen-1-yl}-ureido)-phenyl]-methanesulfonamide] | < 1 nM | < 0.3 nM | < 1 nM
CN1CCOC[C@H]1c1nnc2ccc(O[C@@H]3CC[C@H](NC(=O)Nc4cc(NS(C)(=O)=O)cc(C(C)(C)C)c4)c4ccccc43)cn12 [Example 25, N-[3-tert-Butyl-5-(3-{(1S,4R)-4-[3-((R)-4-methyl-morpholin-3-yl)-[1,2,4]triazolo[4,3-a]pyridin-6-yloxy]-1,2,3,4-tetrahydro-naphthalenyl}-ureido)-phenyl]-methanesulfonamide] | < 1 nM | > 1 nM | > 5 nM
CCN1CCC[C@@]1(C)c1nnc2ccc(O[C@@H]3CC[C@H](NC(=O)Nc4cc(NS(C)(=O)=O)cc(C(C)(C)C)c4)c4ccccc43)cn12 [Example 27, N-[3-tert-Butyl-5-(3-{(1S,4R)-4-[3-((S)-1-ethyl-2-methyl-pyrrolidin-2-yl)-[1,2,4]triazolo[4,3-a]pyridin-6-yloxy]-1,2,3,4-tetrahydro-naphthalen-1-yl}-ureido)-phenyl]-methanesulfonamide] | < 1 nM | < 0.3 nM | < 1 nM
CC(C)(C)c1cc(NC(=O)N[C@H]2CC[C@@H](Oc3ccc4nnc([C@@H]5CCCN5CCO)n4c3)c3ccccc32)cc(NS(C)(=O)=O)c1 [Example 31, N-{3-tert-Butyl-5-[3-((1S,4R)-4-{3-[(S)-1-(2-hydroxy-ethyl)-pyrrolidin-2-yl]-[1,2,4]triazolo[4,3-a]pyridin-6-yloxy}-1,2,3,4-tetrahydro-naphthalen-1-yl)-ureido]-phenyl}-methanesulfonamide] | < 1 nM | > 1 nM | > 5 nM
CN1CCC[C@@]1(CO)c1nnc2ccc(O[C@@H]3CC[C@H](NC(=O)Nc4cc(NS(C)(=O)=O)cc(C(C)(C)C)c4)c4ccccc43)cn12 [Example 33] | < 1 nM | 0.3 to 1 nM | < 1 nM
CN1CCC[C@@]1(C)c1nnc2ccc(O[C@@H]3CC[C@H](NC(=O)Nc4cc(N)cc(C(C)(C)C)c4)c4ccccc43)cn12 [Example 35] | < 1 nM | < 0.3 nM | 1 to 5 nM
